Results published in patent publication US20050090531A1, “MAG expression promoters” (priority 1999, published 2005).

What was measured:
Format in all cases: cell-based, rat
[1] = test system: myelination of axon in co-cultured DRG nerve cells and Schwann cells; experiment: Myelination of axon in co-culture of DRG nerve cells and Schwann cells (Sudan Black B myelin staining), Experimental Example 1; settings: 2 weeks of co-culture
Procedure: The preparation of nerve cell followed the method of Seung U. Kim (Experimental Protocols for Brain and Nerve—From cultured cell to functional analysis, ed. Katsuhiko Mikoshiba, Takao Shimizu, Yodosha). That is, an embryo was taken out from a 18-day pregnant female rat (Crj: CD(SD)IGS), from which dorsal spinal nerve root ganglia (hereinafter to be referred to as DRG) was removed under a stereoscopic microscope. DRG was treated with 0.25% trypsin and DNase I at 37° C. to disperse the cells. Adherent cells other than nerve cells were removed and the cells (5000 cells) were plated on a polylysine-coated plate. The cells were cultured in DMEM containing 10% FCS supplemented with the nerve growth factor (hereinafter to be referred to as NGF, 50 ng/ml) in a CO2 incubator. After 3 days of culture, the medium was changed to one containing Ara-C (1 μmol/l) to remove proliferative cells other than the nerve cells.
The preparation of Schwann cells followed the method of Ichiro Matsuoka (Springer Neuroscience Lab Manual 1, ed. Hiroshi Hatanaka, Springer-Verlag Tokyo). That is, the sciatic nerve of a neonatal rat (1 to 3 days postnatal, (Crj: CD(SD)IGS)) was removed under a stereoscopic microscope and adventitia was removed. By treating with trypsin/collagenase and DNase I in CMF-HBSS, the cells were dispersed. Using a culture flask, the cells were cultured in DMEM containing 10% FCS in a CO2 incubator. After culturing in a medium containing Ara-C, the cells were recovered and the cell suspension was treated successively with anti-Thy 1.1 and rabbit complement to remove cells other than the Schwann cells. Using a collagen-coated culture flask, the cells were cultured in DMEM containing 10% FCS in a CO2 incubator.
After 1 week from the start of the culture of DRG nerve cells, Schwann cells (20,000 cells) were plated on a plate in which DRG nerve cells had been cultured. he medium for co-culture was DMEM containing 2 μmol/l f forskolin, 50 ng/ml of NGF and 10% FCS. […]

[2] = test system: myelin-related glycoprotein (MAG); experiment: MAG expression in DRG nerve cell/Schwann cell co-culture by immunoblotting, concentration dependence, Experimental Example 2; settings: tested at 1, 3, 10 or 30 μmol/l, added every 2 days for 2 weeks; immunoblot, semi-quantitative
Procedure: According to the method described in Experimental Example 1, DRG nerve cells and Schwann cells were co-cultured. A DMSO solution containing the compound of the present invention (Y-128, 1, 3, 10 or 30 μmol/l) or ascorbic acid (50 μg/ml) as a positive control compound was added to the medium every 2 days for 2 weeks. As a negative control compound, the vehicle DMSO was added in the same manner. After 2 weeks from the start of the addition of the compound, the medium was removed and a sample buffer containing sodium dodecyl sulfate (SDS) was added to the well for solubilization of the cells.
A part thereof was separated by polyacrylamide gel electrophoresis and the migrated protein was transferred to a PVDF membrane. By immunoblotting and chemiluminescence, the objective protein was detected on an X ray film. A band detected at about 100 kDa migration was identified as a signal of myelin-related glycoprotein (MAG). The X ray film was scanned and the image was imported to a computer, and the expression of MAG was semi-quantitatively determined using an analysis software, ImageQuaNT (Molecular Dynamics). […] From the above-mentioned Experimental Example, it was clarified that the compound of the present invention (Y-128) increased the expression of MAG from the concentration of 3 μmol/l.

[3] = test system: myelin-related glycoprotein (MAG); experiment: Time-course of MAG expression in DRG nerve cell/Schwann cell co-culture, Experimental Example 3; settings: 10 μmol/ml, added every 2 days
Procedure: According to the method described in Experimental Example 1, DRG nerve cells and Schwann cells were co- cultured. A DMSO solution containing the compound of the present invention (Y-128, […]) or ascorbic acid (50 μg/ml) as a positive control compound was added to the medium every 2 days. The medium DMSO was added in the same manner as was the negative control compound. In the same manner as in Experimental Example 2, MAG was quantitatively determined before addition of the compounds and 3, 6, 9, 12, 15 and 18 days after addition.

Row | SMILES | staining of axon (myelin stain) ([1]; 50 μg/ml, added every 2 or 3 days, 12 wells, Sudan Black B stain) | concentration from which the expression of MAG was increased [2] [µmol/L] | effect on myelination of axon (conclusion) ([1]; 3 μmol/l) | wells in which axon was stained as deep as ascorbic acid addition group ([1]; 3 μmol/l, added every 2 or 3 days, Sudan Black B stain) | time after addition at which the expression of MAG disappeared [3] [days] | time-course changes of MAG expression compared with positive control ascorbic acid (50 μg/ml) ([3]; up to 18 days) | time after addition at which expression of MAG was increased maximally ([3]; measured 3, 6, 9, 12, 15 and 18 days after addition)
1 | O=C1O[C@H]([C@@H](O)CO)C(O)=C1O [ascorbic acid, reference compound] | axon was stained deep in every well |  |  |  |  |  | 
2 | Cc1ccc(-n2ccnc2)cc1[C@H](O)c1c(C)cc(C(=O)O)cc1C [Y-128, (S)-4-[α-hydroxy-5-(1-imidazolyl)-2-methylbenzyl]-3,5-dimethylbenzoic acid] |  | ≥ 3 | promoted myelination of axon | 5 wells out of 12 wells | 18 | the same as that by the positive control compound, ascorbic acid | 6 days and 12 days
